According to publication PMC10882719 (Frontiers in Neuroscience, 2024):
Read-outs that look alike come from different tables or passages of the source.

Columns and labels:
Assay type in all cases: cell-based
[1] = molecular target: T1, 168 GPCRs (Homo sapiens, UniProt Q16581)
T1 construct: host or cells: PathHunter cell lines
T1 sequence (Q16581 1-482): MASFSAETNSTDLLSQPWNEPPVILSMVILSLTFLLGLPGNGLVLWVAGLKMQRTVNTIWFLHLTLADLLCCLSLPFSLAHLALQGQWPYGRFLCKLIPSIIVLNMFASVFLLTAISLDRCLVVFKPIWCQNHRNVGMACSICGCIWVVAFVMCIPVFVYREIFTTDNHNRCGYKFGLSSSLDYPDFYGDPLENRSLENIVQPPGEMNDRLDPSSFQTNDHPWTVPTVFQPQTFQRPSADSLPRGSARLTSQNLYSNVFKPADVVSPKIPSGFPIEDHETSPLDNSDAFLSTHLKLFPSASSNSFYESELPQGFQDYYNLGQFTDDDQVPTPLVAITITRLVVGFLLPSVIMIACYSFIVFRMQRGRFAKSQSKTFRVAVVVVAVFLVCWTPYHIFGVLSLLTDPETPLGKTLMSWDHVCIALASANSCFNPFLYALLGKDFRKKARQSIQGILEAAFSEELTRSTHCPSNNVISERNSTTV

[2] = molecular target: T2, 168 GPCRs (Homo sapiens, UniProt P51582); conditions: P2RY4
T2 construct: host or cells: PathHunter cell lines
T2 sequence (P51582 whole entry): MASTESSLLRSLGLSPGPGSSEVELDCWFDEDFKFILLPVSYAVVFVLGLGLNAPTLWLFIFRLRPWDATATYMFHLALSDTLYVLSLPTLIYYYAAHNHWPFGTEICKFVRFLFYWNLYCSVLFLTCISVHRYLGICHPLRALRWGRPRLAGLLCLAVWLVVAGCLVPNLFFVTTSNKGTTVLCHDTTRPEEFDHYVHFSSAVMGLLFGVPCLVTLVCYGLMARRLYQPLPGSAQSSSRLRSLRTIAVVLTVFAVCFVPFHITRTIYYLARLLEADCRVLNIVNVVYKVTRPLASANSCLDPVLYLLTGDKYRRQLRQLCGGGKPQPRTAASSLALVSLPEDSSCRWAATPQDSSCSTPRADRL

[3] = molecular target: T3, 168 GPCRs (Homo sapiens, UniProt P51686)
T3 construct: host or cells: PathHunter cell lines
T3 sequence (P51686 1-369): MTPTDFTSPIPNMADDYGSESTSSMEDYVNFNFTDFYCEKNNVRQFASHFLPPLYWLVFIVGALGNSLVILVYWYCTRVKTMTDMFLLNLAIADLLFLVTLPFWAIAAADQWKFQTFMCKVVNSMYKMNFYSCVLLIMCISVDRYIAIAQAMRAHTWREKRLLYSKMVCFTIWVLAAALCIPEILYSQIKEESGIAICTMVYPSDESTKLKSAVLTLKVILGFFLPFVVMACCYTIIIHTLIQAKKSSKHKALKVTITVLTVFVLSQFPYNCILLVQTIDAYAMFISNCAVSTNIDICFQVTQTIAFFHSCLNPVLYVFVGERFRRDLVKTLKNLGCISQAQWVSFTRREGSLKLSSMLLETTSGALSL

[4] = molecular target: T4, 168 GPCRs (Homo sapiens, UniProt P43116); conditions: PTGER2
T4 construct: host or cells: PathHunter cell lines
T4 sequence (P43116 whole entry): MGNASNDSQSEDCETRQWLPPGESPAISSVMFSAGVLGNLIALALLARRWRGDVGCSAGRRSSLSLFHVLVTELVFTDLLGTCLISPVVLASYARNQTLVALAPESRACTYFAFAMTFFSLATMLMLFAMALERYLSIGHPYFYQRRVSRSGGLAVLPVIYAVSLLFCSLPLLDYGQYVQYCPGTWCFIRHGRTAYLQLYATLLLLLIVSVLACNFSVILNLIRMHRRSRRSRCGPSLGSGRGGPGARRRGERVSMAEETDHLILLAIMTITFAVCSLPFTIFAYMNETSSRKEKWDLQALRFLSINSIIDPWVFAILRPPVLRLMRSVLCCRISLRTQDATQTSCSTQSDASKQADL

[5] = molecular target: T5, 168 GPCRs (Homo sapiens, UniProt P47872); conditions: SCTR
T5 construct: host or cells: PathHunter cell lines
T5 sequence (P47872 23-440): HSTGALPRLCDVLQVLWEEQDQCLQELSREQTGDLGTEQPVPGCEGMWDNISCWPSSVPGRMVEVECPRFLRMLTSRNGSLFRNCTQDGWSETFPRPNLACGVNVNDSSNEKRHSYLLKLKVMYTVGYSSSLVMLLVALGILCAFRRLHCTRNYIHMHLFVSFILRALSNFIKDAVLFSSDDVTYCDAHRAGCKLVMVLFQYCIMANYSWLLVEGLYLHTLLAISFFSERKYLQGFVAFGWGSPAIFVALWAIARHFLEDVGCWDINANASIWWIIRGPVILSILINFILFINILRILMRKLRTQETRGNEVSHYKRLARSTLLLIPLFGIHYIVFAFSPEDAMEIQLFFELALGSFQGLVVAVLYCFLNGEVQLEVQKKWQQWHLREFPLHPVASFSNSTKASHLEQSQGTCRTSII

[6] = molecular target: T6, 168 GPCRs (Homo sapiens, UniProt Q15722); conditions: LTB4R
T6 construct: host or cells: PathHunter cell lines
T6 sequence (Q15722 whole entry): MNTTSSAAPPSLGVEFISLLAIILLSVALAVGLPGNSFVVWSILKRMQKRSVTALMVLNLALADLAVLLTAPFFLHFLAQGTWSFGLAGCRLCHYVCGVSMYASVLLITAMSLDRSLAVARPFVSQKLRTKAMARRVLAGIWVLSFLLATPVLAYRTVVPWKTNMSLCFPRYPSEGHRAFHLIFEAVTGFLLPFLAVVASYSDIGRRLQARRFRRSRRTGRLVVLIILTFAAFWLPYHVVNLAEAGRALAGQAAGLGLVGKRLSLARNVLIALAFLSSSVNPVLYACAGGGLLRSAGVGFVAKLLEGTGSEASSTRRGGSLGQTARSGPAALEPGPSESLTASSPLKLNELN

[7] = molecular target: T7, 168 GPCRs (Homo sapiens, UniProt P30518)
T7 construct: host or cells: PathHunter cell lines
T7 sequence (P30518 whole entry): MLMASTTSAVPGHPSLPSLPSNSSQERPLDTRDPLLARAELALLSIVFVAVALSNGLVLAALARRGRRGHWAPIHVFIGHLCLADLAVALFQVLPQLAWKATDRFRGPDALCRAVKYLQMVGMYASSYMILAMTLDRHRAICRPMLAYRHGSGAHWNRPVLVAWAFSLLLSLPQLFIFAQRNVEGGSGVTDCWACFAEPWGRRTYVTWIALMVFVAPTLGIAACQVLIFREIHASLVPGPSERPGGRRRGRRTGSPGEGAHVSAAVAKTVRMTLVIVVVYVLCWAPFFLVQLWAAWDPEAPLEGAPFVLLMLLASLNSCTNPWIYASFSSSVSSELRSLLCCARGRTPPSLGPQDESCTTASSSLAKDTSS

[8] = molecular target: T8, 168 GPCRs (Homo sapiens, UniProt Q8TDS5); conditions: OXER1
T8 construct: host or cells: PathHunter cell lines
T8 sequence (Q8TDS5 whole entry): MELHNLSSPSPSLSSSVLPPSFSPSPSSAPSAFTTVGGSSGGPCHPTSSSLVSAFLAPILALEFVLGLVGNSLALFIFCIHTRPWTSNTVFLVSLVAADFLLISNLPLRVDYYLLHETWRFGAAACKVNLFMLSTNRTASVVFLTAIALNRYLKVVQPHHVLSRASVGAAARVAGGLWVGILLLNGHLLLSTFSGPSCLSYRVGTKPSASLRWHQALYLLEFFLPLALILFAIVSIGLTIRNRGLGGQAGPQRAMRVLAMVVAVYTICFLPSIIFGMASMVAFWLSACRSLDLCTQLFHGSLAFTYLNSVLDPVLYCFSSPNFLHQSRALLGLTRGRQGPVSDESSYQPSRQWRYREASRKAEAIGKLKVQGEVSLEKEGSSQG

[9] = molecular target: T9, 168 GPCRs (Homo sapiens, UniProt P46091)
T9 construct: host or cells: PathHunter cell lines
T9 sequence (P46091 1-355): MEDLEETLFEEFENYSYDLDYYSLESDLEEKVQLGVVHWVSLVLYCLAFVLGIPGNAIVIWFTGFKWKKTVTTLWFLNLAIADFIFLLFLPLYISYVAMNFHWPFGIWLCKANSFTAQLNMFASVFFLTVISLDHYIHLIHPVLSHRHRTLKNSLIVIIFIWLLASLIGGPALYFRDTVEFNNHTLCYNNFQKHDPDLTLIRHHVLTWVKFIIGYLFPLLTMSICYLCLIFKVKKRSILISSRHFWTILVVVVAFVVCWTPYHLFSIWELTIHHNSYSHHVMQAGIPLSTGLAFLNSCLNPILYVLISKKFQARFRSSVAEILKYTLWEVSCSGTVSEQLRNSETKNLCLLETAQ

[10] = molecular target: T10, 168 GPCRs (Homo sapiens, UniProt Q9H244); conditions: P2RY12
T10 construct: host or cells: PathHunter cell lines
T10 sequence (Q9H244 whole entry): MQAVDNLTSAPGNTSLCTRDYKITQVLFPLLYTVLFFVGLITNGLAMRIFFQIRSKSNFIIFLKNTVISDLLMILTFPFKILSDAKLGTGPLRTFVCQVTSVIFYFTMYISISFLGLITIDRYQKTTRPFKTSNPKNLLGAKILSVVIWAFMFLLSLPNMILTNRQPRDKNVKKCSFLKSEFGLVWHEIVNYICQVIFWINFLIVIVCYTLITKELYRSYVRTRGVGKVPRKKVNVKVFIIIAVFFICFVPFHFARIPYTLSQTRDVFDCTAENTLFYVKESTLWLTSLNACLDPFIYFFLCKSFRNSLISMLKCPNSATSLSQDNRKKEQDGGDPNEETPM

SMILES | % Agonist Activity ([1]; C3AR1, 1 uM) | % Antagonist Activity ([1]; C3AR1, 1 uM) | % Agonist Activity ([1]; C3AR1, 10 uM) | % Antagonist Activity ([1]; C3AR1, 10 uM) | % Agonist Activity ([2]; Conc 1 uM) | % Antagonist Activity ([2]; Conc 1 uM) | % Agonist Activity ([2]; Conc 10 uM) | % Antagonist Activity ([2]; Conc 10 uM) | % Agonist Activity ([3]; CCR9, 1 uM) | % Antagonist Activity ([3]; CCR9, 1 uM) | % Agonist Activity ([3]; CCR9, 10 uM) | % Antagonist Activity ([3]; CCR9, 10 uM) | % Agonist Activity ([4]; Conc 1 uM) | % Antagonist Activity ([4]; Conc 1 uM) | % Agonist Activity ([4]; Conc 10 uM) | % Antagonist Activity ([4]; Conc 10 uM) | % Agonist Activity ([5]; Conc 1 uM) | % Antagonist Activity ([5]; Conc 1 uM) | % Agonist Activity ([5]; Conc 10 uM) | % Antagonist Activity ([5]; Conc 10 uM) | other results
CNC(C)Cc1ccc2c(c1)OCO2 (centres unmarked) [MDMA, 3,4-Methylenedioxy methamphetamine, reference compound] | 0.2% | 12.9% | 0.2% | 9.8% | -4.2% | 5.7% | -7.2% | -0.6% | 0.1% | 5.3% | 0.2% | 14.5% | 0.7% | -9.8% | 1.1% | -12.8% | 0.1% | -3.8% | -1.9% | 7.4% | % Agonist Activity ([6]; 1 uM): 0.5%; % Antagonist Activity ([6]; 1 uM): 8.9%; % Agonist Activity ([6]; 10 uM): 0.5%; % Antagonist Activity ([6]; 10 uM): 11.3%; % Agonist Activity ([7]; AVPR2, 1 uM): -2.9%; % Antagonist Activity ([7]; AVPR2, 1 uM): -7.8%; % Agonist Activity ([7]; AVPR2, 10 uM): -2.2%; % Antagonist Activity ([7]; AVPR2, 10 uM): -0.4%; % Agonist Activity ([8]; Conc 1 uM): 6.3%; % Antagonist Activity ([8]; Conc 1 uM): -7.5%; % Agonist Activity ([8]; Conc 10 uM): 4.8%; % Antagonist Activity ([8]; Conc 10 uM): -1.7%; % Agonist Activity ([9]; GPR1, 1 uM): 0.7%; % Antagonist Activity ([9]; GPR1, 1 uM): 7.6%; % Agonist Activity ([9]; GPR1, 10 uM): 0.2%; % Antagonist Activity ([9]; GPR1, 10 uM): 11.9%; % Agonist Activity ([10]; Conc 1 uM): -1.6%; % Antagonist Activity ([10]; Conc 1 uM): 8.6%; % Agonist Activity ([10]; Conc 10 uM): -0.6%; % Antagonist Activity ([10]; Conc 10 uM): 5.9%
CNC(C)C(=O)c1ccc2c(c1)OCO2 (centres unmarked) [methylone] | -0.1% | 2.5% | 0% | 0.3% | -3.3% | 15.1% | -4.1% | 17.5% | -0.5% | 2.9% | 0.2% | -9.9% | -1.4% | 12.7% | -3.1% | -4.4% | -2.6% | 5.3% | -1.4% | 2.5% | % Agonist Activity ([6]; 1 uM): -0.3%; % Antagonist Activity ([6]; 1 uM): 3.5%; % Agonist Activity ([6]; 10 uM): -0.8%; % Antagonist Activity ([6]; 10 uM): -5.2%; % Agonist Activity ([7]; AVPR2, 1 uM): -0.9%; % Antagonist Activity ([7]; AVPR2, 1 uM): -2.7%; % Agonist Activity ([7]; AVPR2, 10 uM): 1%; % Antagonist Activity ([7]; AVPR2, 10 uM): -14.8%; % Agonist Activity ([8]; Conc 1 uM): 3.2%; % Antagonist Activity ([8]; Conc 1 uM): 2.9%; % Agonist Activity ([8]; Conc 10 uM): -3.7%; % Antagonist Activity ([8]; Conc 10 uM): 7.6%; % Agonist Activity ([9]; GPR1, 1 uM): -0.5%; % Antagonist Activity ([9]; GPR1, 1 uM): 4.4%; % Agonist Activity ([9]; GPR1, 10 uM): -0.7%; % Antagonist Activity ([9]; GPR1, 10 uM): 7.4%; % Agonist Activity ([10]; Conc 1 uM): -1.5%; % Antagonist Activity ([10]; Conc 1 uM): -14.8%; % Agonist Activity ([10]; Conc 10 uM): -2.5%; % Antagonist Activity ([10]; Conc 10 uM): -10.4%
